Assays:
[1] = tested on: aged C57BL/6J mice; test: Running wheel activity in aged high fat diet mice; type: in vivo, mouse; conditions: 50 mg/kg/day, 30 weeks, dark phase of day 2, FIG. 21
Experimental: To examine the effects of urolithin A treatment on motor activity in aged mammals 17-month-old C57BL/6J mice were treated with either a high fat rodent diet or a high fat rodent diet containing urolithin A mixed with food to reach a dosing of 50 mg/kg/day delivered to the mice.
Following 30 weeks of treatment with urolithin A, mice were housed individually and a 23 cm diameter running wheel was placed in the cage of each mouse. Spontaneous exercise activity was measured continuously over a two day period allowing the capture of the circadian rhythm of the exercise activity. Afterwards, mice were returned to their home cages.
Mice became habituated to the presence of the activity wheel on day 1. To measure the effect of urolithin A treatment on activity as well as muscle function, the cumulative distance that animals covered during the peak running period (dark phase) of day 2 was measured.

[2] = tested on: C57BL/6J mice; test: Spontaneous running wheel activity in young mice; type: in vivo, mouse; conditions: for increase over untreated controls in the cumulative distance covered: 55 mg/kg/day in food, 11 weeks
Experimental: To examine the effect of urolithin A treatment on activity and muscle function in mammals, 10-week-old C57BL/6J mice were treated with either a standard rodent diet or a diet containing urolithin A mixed with food to reach a dosing of 55 mg/kg/day delivered to the mice. Following 11 weeks of treatment with urolithin A, a 23 cm in diameter running wheel was placed in the cage of each mouse. Spontaneous exercise activity was measured over a five day period at 20 min intervals, allowing the capture of the circadian rhythm of the exercise activity.

[3] = tested on: gastrocnemius muscles of aged C57BL/6J mice; test: Autophagy in skeletal muscle of aged mice; type: in vivo, mouse; conditions: 50 mg/kg/day in food, 34 weeks
Experimental: Locomotor activity may be also assessed by measuring animal movements using infrared detection. To determine the effects of urolithin A on spontaneous locomotor activity in aged animals, 16-month-old C57BL/6J mice were treated with either a standard rodent diet or a diet containing urolithin A mixed with food to reach a dosing of 50 mg/kg/day delivered to mice. Following 34 weeks of treatment with urolithin A, mice were placed in a locomotor activity monitoring system, TSE Systems. Infrared transmitters and receivers are placed in the x, y, and z axis. Interruption of the infrared beams in the x, y axis by the passage of the mouse, allows for a measurement of the horizontal movement (ambulation). Interruption of the infrared beams in the z axis by the mouse, allows for the measurement of rearing behavior. Each beam interruption results in one count being recorded. Total counts were measured for each 30 minute period over a two day period. The total counts observed during the 12 hour dark period, which corresponds to the time of highest activity in mice, were summed for each animal.
Following 34 weeks of treatment, the mice from Example 19 were sacrificed and the organs were collected. The gastrocnemius muscles were assessed for the presence of autophagy by the assessment of the change in the ratio of the autophagy markers LC3 and p62 using western blot analysis. Each lane corresponds to a muscle sample from an individual mouse. The ratio of LC3-II/LC3-I increased in the muscles of urolithin A (UA)-treated mice versus untreated mice. This was accompanied by a decrease in the levels of p62 in the muscles of UA treated versus untreated mice. These shifts in the levels of LC3 and p62 in the muscle of mice are consistent with an increase in the level of autophagy taking place.

[4] = tested on: C. elegans; test: Pharyngeal pumping in C. elegans; type: in vivo; conditions: day 14 (aged worms); 50 μM; FIG. 11
Experimental: To examine the effect of urolithins on muscle function, pharyngeal pumping was examined in C. elegans worms at day 7 and day 14. Worms were observed using a Nikon SMZ1500 stereomicroscope (Nikon, Melville, NY, USA). Ten L4 worms were transferred on plates containing NGM medium with vehicle (DMSO 0.1%, final concentration) or the compound of interest (urolithin A (UA), urolithin B (UB), urolithin C (UC), urolithin D (UD)) dissolved in DMSO (final concentration 50 μM) and seeded with E. coli RNAi clones as indicated. After 3 days (corresponding to day 0), newly developed 60 to 100 L4 worms were used per condition, scored and transferred to fresh plates every 3 days starting from day 1 (young adult worms). Experiments were performed at 20° C.
The pharyngeal pumping rates at day 7 and 14 were measured for 10 worms by transferring single worms to an unseeded plate and scoring for pharyngeal pumping under a dissecting microscope for 30 seconds. The pharyngeal pumping rates were then computed by extrapolating the pumping made by worms during this 30 second period.

[5] = tested on: C. elegans wild-type Bristol N2; test: Oxygen consumption (Seahorse XF24) in aged C. elegans; type: in vivo
Experimental: C. elegans strains were cultured at 20° C. on nematode growth media (NGM) agar plates seeded with E. coli strain OP50. Strain used was wild-type Bristol N2 provided by the Caenorhabditis Genetics Center (University of Minnesota). Urolithin A was dissolved in DMSO. Animals were exposed to compounds from eggs on plates seeded with live OP50 bacteria. Control plates were prepared with the corresponding concentration of DMSO (0.1%).
The effect of urolithin A on mitochondrial activity in aged C. elegans (10 days old) was assessed by treating C. elegans with urolithin A for 10 days of adulthood, at which time oxygen consumption was measured using the Seahorse XF24 equipment (Seahorse Bioscience Inc., North Billerica, MA). […] Worms were transferred into 24-well standard Seahorse plates (#100777-004) (50 worms per well) and oxygen consumption was measured. The basal oxygen consumption of the worms was first measured over 30 minutes at 5-minute intervals (0 min, 5 min, 15 min, 20 min, 25 min, and 30 min) with 5 replicates per interval. Respiration rates were normalized to the exact number of worms per well determined after the completion of the experiment using a stereomicroscope. […] Uncoupled oxygen consumption was measured at 5-minute intervals (35 min, 40 min, 45 min, 50 min, 55 min, and 60 min) to permit measuring the mitochondrial function over time.

[6] = tested on: liver of C57BL/6J mice; test: Autophagy in liver of mice after oral urolithin A; type: in vivo, mouse; conditions: oral 55 mg/kg/d in chow, 8 weeks
Experimental: To determine the ability of urolithin A to induce autophagy in vivo, healthy 10-week-old C57BL/6J mice were treated with either a standard rodent diet or a diet containing urolithin A mixed with food to reach a dosing of 55 mg/kg/day delivered to the mice. Following 8 weeks of treatment with urolithin A, mice were sacrificed and the liver of each animal was surgically isolated. The isolated livers were then placed in lysis buffer and prepared for western blot analysis.
Protein expression levels were examined for autophagy related proteins LC3-I and LC3-II (Cell Signaling antibody #4108), p62 (Cell Signalling antibody #5114), AMPKα (Cell Signaling antibody #2603), and p-AMPKα(Cell Signaling antibody #2531). The housekeeping protein, HSP90 (BD Transduction Laboratories antibody #610418) level was measured as a loading control. Each lane in the Western blot represents a protein sample for the liver of a single mouse, to permit observation of the effects aver a number of treated animals.

Q: How did the “increase in cumulative distance run” value [1] turn out when `O=c1oc2cc(O)ccc2c2ccc(O)cc12` [Urolithin A, urolithin A] was run?
A: The value was 57%.

Q: And the “increase over untreated controls in the cumulative distance covered” value ([2]; final two days)?
A: The value was 29%.

Q: What about the “increase over untreated controls in the cumulative distance covered” value ([2]; initial 3 days, FIG. 20) of the same molecule?
A: Its value is 25%.

Q: And the “increase in spontaneous voluntary running on a running wheel” value ([2]; 55 mg/kg/day, five-day period, FIG. 20)?
A: Its value is “at least 25%”.

Q: And the “levels of p62” value [3]?
A: Its value is “decreased”.

Q: What about the “ratio of p-AMPKα/AMPKα” value [3] of the same molecule?
A: The value was “increase”.

Q: And the “ratio of LC3-II/LC3-I” value ([3]; FIG. 24)?
A: The value was “increased”.

Q: What about the “levels of p62” value ([3]; listed as UA) of the same molecule?
A: The value was “decrease”.

Q: And the “pharyngeal pumping (muscle function)” value [4]?
A: Its value is “decreases the age related decline in muscle activity”.

Q: What about the “basal respiration, 10-day-old vs 1-day-old worms” value ([5]; 30 μM, FIG. 8D) of the same molecule?
A: Its value is “normalizes the respiration rates”.

Q: And the “uncoupled (FCCP) respiration, area under the curve” value ([5]; 10-day-old worms, 30 μM urolithin A, 30-minute period, FIGS. 8A-8B)?
A: Its value is “significantly increased uncoupled respiration”.

Q: What about the p62 protein levels [6] of the same molecule?
A: Its p62 protein levels is “decreased”.

Q: What about the “phosphorylated AMPKα / ratio of p-AMPKα/AMPKα” value ([6]; 55 mg/kg/day) of the same molecule?
A: Its value is “increased levels”.

Q: And the “ratio of LC3-II to LC3-I” value ([6]; FIG. 19, 55 mg/kg/day)?
A: Its value is “increased”.

Q: What about the “increase in autophagy over control untreated mice based on the ratio of LC3-II/LC3-I” value ([6]; average) of the same molecule?
A: The value was “approximately 400%”.
